Results on 1 molecule are retold here after patent US20210308120A1, “Use of Amitriptyline for Blocking Brain Hemichannels and Method for Potentiating its Effect in Vivo” (THERANEXUS, priority 2015, published 2021).

Each structure is given as a SMILES string.

The target of one data set is T1, Cx43 hemichannels (Mus musculus, UniProt P23242).
T1 construct: Astrocyte cultures were prepared from cortex of rats and mice as previously described; endogenous in cells; host or cells: secondary cultures of mouse cortical astrocytes, LPS-treated
T1 sequence (P23242 whole entry): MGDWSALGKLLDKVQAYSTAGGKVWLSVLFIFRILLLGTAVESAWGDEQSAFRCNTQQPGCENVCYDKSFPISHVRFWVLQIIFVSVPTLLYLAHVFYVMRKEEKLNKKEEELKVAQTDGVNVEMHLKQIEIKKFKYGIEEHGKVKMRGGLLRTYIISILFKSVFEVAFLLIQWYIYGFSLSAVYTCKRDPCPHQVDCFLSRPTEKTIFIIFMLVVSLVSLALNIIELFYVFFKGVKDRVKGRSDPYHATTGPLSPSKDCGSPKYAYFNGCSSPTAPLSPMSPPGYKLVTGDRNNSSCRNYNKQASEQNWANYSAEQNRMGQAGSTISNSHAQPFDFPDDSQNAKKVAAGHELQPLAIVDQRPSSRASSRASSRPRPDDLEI
Kind of data set: Hemichannel activity by ethidium bromide uptake in LPS-treated mouse cortical astrocyte cultures. The format is cell-based. The following applies: LPS 1 μg/mL and amitriptyline 5, 10 and 20 μM, 24 hours. The protocol: Astrocyte cultures were prepared from cortex of rats and mice as previously described (Meme et al., 2006). Cells were seeded on polyornithine coated 35 mm dishes (5×10^5 cells/dish) or into 100-mm diameter plastic dishes at the density of 3×10^6 cells/dish. After 8-10 days, when cells grown into 35 mm in diameter plastic culture dishes have reached confluence, 1 μM of cytosine-arabinoside was added to the culture medium. In addition, when cells grown into 100 mm plastic culture dishes reached confluence, they were harvested with trypsin-EDTA. Then, cells were re-plated (2×10^5 cells per well), as secondary cultures, on glass coverslips placed inside 24-round-well plate. Finally, they were grown to confluence and cytosine-arabinoside was added. Medium was changed twice a week for all cells until the experiments were carried out. Hemichannel activity was evaluated in secondary cultures of cortical astrocytes by Ethidium Bromide (EtBr) uptake as already published (Orellana et al, 2011). 24 h before experiment, cells were pretreated or not with 1 μg/ml LPS known to open Cx43 HeC. The day of experiment, cells were first preincubated in HEPES buffer solution. Then, cells were exposed to 5 μM EtBr for 10 min at room temperature. Cells were then washed with the same buffer before fixation with 4% paraformaldehyde in PBS. Fixed cells were examined at 40× with a confocal laser-scanning microscope. Stacks of 10 consecutive confocal images taken at 0.49 μm intervals were acquired. For each experimental condition, 6 images were captured and then analyzed with Image J program (NIH software). LPS was added to mouse cortical astrocytic cultures during 24 hours to open Cx43 hemichannels and amitriptyline was also added during the same time to evaluate its action on hemichannel activity, quantified by cell uptake of ethidium bromide.

A further data set deals with mice subjected to FST. Kind of data set: Forced Swim Test (FST). The format is in vivo, mouse. The settings on record: 2nd 3-min period. The protocol:
The FST is the most used rodent model for screening antidepressants (Porsolt et al, 1977). Mice were dropped individually in a glass cylinder (25 cm high, 9 cm diameter) filled with 10 cm 25° C. water. The experiment was recorded with a camcorder, placed in front of the glass cylinders. Video were scored at a later time by an experimenter blind to the treatments. The indices of depression-related behavior are the immobility time, the swimming time and the climbing time.
FST test evaluates the despair behavior which is commonly reversed by antidepressants. During FST, the swimming time of each mouse was measured on each 1-min period, on 1st and 2nd 3-min periods.

The next data set has as its system REM sleep in mice. Kind of data set: Quantification of sleep-wake episodes (REM sleep), EEG/EMG. The format is in vivo, mouse. The settings on record: amitriptyline 1 mg/kg i.p., combined or not with mefloquine 1 mg/kg i.p.; vs control. The text has this:
Mice were implanted with cortical and muscle electrodes to record the electroencephalogram (EEG) and electromyogram (EMG) and to monitor the sleep-wake cycle. This implantation allows stable and long-lasting polysomnographic recordings (Parmentier et al, 2002).
Polysomnographic records were visually scored by 10-s epochs for wakefulness (W), slow wave sleep (SWS), and paradoxical or rapid eye movement (REM) sleep.
Mice were registered by electroencephalogram to quantify sleep-wake episodes.

Data set [1] can be described thus: Pharmacokinetics of amitriptyline/mefloquine in plasma and brain of mice (LC-MS). The format is in vivo, mouse. The following applies: amitriptyline 6, 12 mg/kg, mefloquine 0.1, 0.3, 1 mg/kg i.p., 18 days, 2 hours after injection. The protocol: Data are presented as mean±SEM.
Adult male C57BL/6J mice (Charles River, L'Arbresle, France) were used. Mice were kept in collective cages for habituation to the facility for one week before experimental testing with food and water ad libitum. Mice were maintained on a light/dark cycle of 12 hours with light onset at 8h00 and with a controlled temperature of 21° C.±1° C.
Injections were done twice.
On day 18th of treatment, mice received the morning injection and samplings were done 2 hours after the injection. Mice were anesthetized just before sampling (ketamine 68 mg/kg, xylazine 10 mg/kg) and blood was collected by intracardiac puncture (Vacuette tubes, with lithium/heparin gel). The mouse was then decapitated, and the brain extracted and fast frozen in dry ice.
Vacuette tubes with blood were centrifugated (3000 rpm, 20 min), plasma recovered and stored at −80° C. until shipping in dry ice.

For data set [2], the system named is LPS-injected mice (neuro-inflammation). As to the kind of experiment: LPS-induced model of neuro-inflammation (coat state score, weight loss). The format is in vivo, mouse. The following applies: amitriptyline 1 mg/kg ± mefloquine 1 mg/kg. The text has this: FIG. 13 represents the coat state scores evaluated three hours after treatment in a LPS-induced model of neuro-inflammation (left graph). The right graph represents the amount of weight loss between three hours of treatment and just before treatment in a LPS-induced model of neuro-inflammation (right graph). Control mice were ip injected with saline solution. […] In both graphs: n=4-6 mice per group, data are presented as means±SEM and compared with a One-way ANOVA followed by Tukey's post-hoc test, *p<0.05, […] versus CONTROL-treated mice.
Adult Swiss male mice were used in the LPS model. Mice were kept in collective cages for habituation to the facility for one week before experimental testing. Afterwards, they were housed in individual cages two days before the experiment started with food and water ad libitum. Mice were maintained on a light/dark cycle of 12 hours with light onset at 8h00 and with a controlled temperature of 21° C.±1° C. […]
Coat state score was evaluated three hours after treatment. […] The cleanness fur state was evaluated for each of these five body parts. […]
General physiological state of the animals was assessed by the normalised weight loss; defined as the difference between weight measures three hours after treatment (T0+24 h) and just before treatment (T0+21 h).

For data set [3] the following is noted: rats; cited from earlier work.

For `CN(C)CCC=C1c2ccccc2CCc2ccccc21` [amitriptyline, 3-(5,6-dihydrodibenzo[2,1-b:2′,1′-f][7]annulen-11-ylidene)-N,N-dimethylpropan-1-amine], the “HC activity (ethidium bromide uptake) after LPS-induced opening” value at Cx43 hemichannels was “reversed this increase at the three tested doses”. Moreover, the Swimming time result with mice subjected to FST (amitriptyline 12 mg/kg per os alone) is given as “not significant”; in the data set on mice subjected to FST (amitriptyline 24 mg/kg per os, single), “significant increase of the swimming time”. The REM sleep duration result in the data set on REM sleep in mice is “did not induce significant reduction on its own”. Further, the “Concentrations in blood and brain tissue” value in data set [1] is given as “dose-dependent”. The Weight loss entry in data set [2] (between just before and three hours after oral treatment) is on record as “induces a decrease in weight loss”. Also, in data set [2] (three hours after oral treatment, LPS 0.33 mg/kg i.p.), the “Coat state score (grooming activity)” value was “tendency to reduce the deterioration of coat state”. Also, in data set [3], the Half-life is 2.5 h.
